{"source": "patent EP4772520A1", "about": "“NOVEL PRODRUG-TYPE ANTICANCER AGENT TARGETING CANCER-SPECIFIC ENZYME ACTIVITY” (priority 2023, dated 2025)", "key": {"[1]": {"assay": "Single dose toxicity test 2 (intravenous)", "format": "in vivo, Jcl: ICR mice (female)", "settings": "for Survival rate (%) (after 14 days) / Survival rate (%) (just after administration): n=10; for symptoms immediately after administration: SN38-βGal 300 mg/kg, SN38-βGlcNAc 500 mg/kg intravenous, improved in several hours; for LD50 at 336 h: mouse, in vivo, iv, single intravenous administration, estimated", "procedure": "Single dose toxicity was evaluated by intravenously administering the novel prodrug-type anticancer agents SN38-βGal and SN38-βGlcNAc to Jcl: ICR mice (female). […] 500 mg/kg of SN38-βGlcNAc was intravenously administered."}, "[2]": {"test_system": "luciferase-expressing A549 cells", "assay": "Therapeutic experiment 2 in A549 lung cancer orthotopic transplantation model", "format": "in vivo, mice", "settings": "i.v. 40 mg/kg 5 times then 80 mg/kg 7 times every other day; for tumor suppression effect (luciferin/luciferase chemiluminescence): vs Vehicle", "procedure": "Using SN38-βGal and SN38-βGlcNAc, the dose was increased to verify the therapeutic effect in the lung cancer orthotopic transplantation model. Whether the tumor suppression effect was confirmed was evaluated as compared with the Vehicle group (DMSO administration) by separating the SN38-βGal and SN38-βGlcNAc administration groups. The evaluation was performed on luciferase-expressing A549 cell […] mice using BALB/cAJcl-nu/nu with n = 3 for the Vehicle group, n = 4 for the SN38-βGal group, and n = 5 for the SN38-βGlcNAc group. The administration form was intravenous administration (i.v.).\nFor administration, 40 mg/kg was administered 5 times in total every other day, and then 80 mg/kg was administered 7 times in total every other day. The tumor burden was determined by evaluating the luciferin/luciferase chemiluminescence value. The endpoint was a significant body weight loss (20% loss).\nA specific procedure of the therapeutic experiment is shown below. • (1) Model mice were created by the following operation using BALB/cAJcl-nu/nu (7 weeks old). The skin of the chest was incised, and the skin was subcutaneously detached, then luciferase-expressing A549 cells 2 × 10^7 cells/mL (50 µL, 5% Matrigel) was injected from the intercostal pleura to the left lung. After injection, the skin was sutured. • (2) After 1 week, the formation of cancer was confirmed by luciferin/luciferase chemiluminescence, and the intravenous administration of the drug was started. The drug was prepared by dissolving a 200 mM of DMSO stock in PBS, and administered in a total amount of 100 µL. 3 mg (200 µL) of luciferin was administered by intraperitoneal administration, and anesthetized with isoflurane. Thereafter, the chemiluminescent value at 20 minutes after administration was measured by an in vivo imaging device. • (3) On the day of evaluation, the tumor burden was evaluated by luciferin/luciferase chemiluminescence. • (4) After completion of the treatment, HMRef-βGlcNAc, 5 mg/kg (100 µL PBS) was administered by intravenous administration. 30 minutes after administration, the sternum was incised, and the lungs were taken out. • (5) The cancer lesion was fluorescently imaged by an in vivo fluorescence imaging device, and comparison between the Vehicle and the administration group was performed."}, "SHP77-luc": {"test_system": "SHP77-luc", "assay": "Tumor proliferation suppression test in small cell lung cancer orthotopic model", "format": "in vivo, mice", "settings": "40 mg/kg i.v. twice a week for 4 weeks; for tumor growth (luciferin/luciferase luminescence): n = 6, vs Vehicle", "procedure": "The tumor proliferation suppression effect of the developed prodrugs SN38-βGal and SN38-βGlcNAc in a small cell lung cancer model was evaluated. The model was created by orthotopically transplanting SHP77-luc in which luciferase was expressed in a small cell lung cancer cell line SHP77 relative to BALB/cAJcl-nu/nu into the lung. The Vehicle (DMSO administration) group, the SN38-βGal administration group, and the SN38-βGlcNAc administration group were n = 6, respectively. The administration form was intravenous administration (i.v.), and the dose was 40 mg/kg, and administration was performed twice a week for 4 weeks. The tumor burden was evaluated by the luciferin/luciferase luminescence value.\nA specific procedure of the therapeutic experiment is shown below. • (1) Model mice were created by the following procedure using 20 BALB/cAJcl-nu/nu (7 weeks old/female) mice. 150 to 200 µL of an anesthetic (a mixture of 3 kinds of Domitor + Betorphal + Mitazolam) was intraperitoneally administered to perform anesthesia. The skin of the left chest was incised, the subcutaneous tissue was detached, and then SHP77 luc cell suspension 2 × 10^7 cells/mL (50 µL, 5% Matrigel) was injected from the intercostal pleura to the left lung. The skin was sutured at 3 sites, and 150 to 200 µL of an anti-sedan (atipamezol) solution was intraperitoneally administered to check awakening of the mice. • (2) After 3 weeks, the formation of cancer was confirmed by luciferin/luciferase luminescence, and the administration of the drug was started. The drug was prepared by dissolving 200 mM of DMSO stock in PBS, and was administered from the tail vein in a total amount of 100 µL.3 mg (200 µL) of luciferin was intraperitoneally administered, and anesthetized with isoflurane. Thereafter, the luminescent value at 15 minutes after administration was measured by an in vivo imaging device. • (3) On the day of evaluation, the tumor burden was evaluated by the body weight and the luciferin/luciferase luminescence."}, "[3]": {"settings": "for histological findings (organ damage): summary; for biochemical test findings / blood cell test findings: vs Vehicle; for body weight loss: 40 mg/kg i.v. three times a week for three weeks, at maximum by the final day; for RETICULOCYTE COUNT: blood cell classification, Average", "procedure": "For the Vehicle group, a corresponding amount of DMSO was administered.\nAfter blood was collected on day 22 and then euthanized, the liver, kidney, and spleen were taken out and their weights were compared."}, "[4]": {"test_system": "lung adenocarcinoma cell A549", "assay": "Cytotoxicity test by MTT assay method (A549)", "format": "cell-based", "settings": "for IC50: Homo sapiens, A549, 72 h, read-out: IC50 value"}}, "data": [{"compound": "CCc1c2c(nc3ccc(O[C@@H]4O[C@H](CO)[C@@H](O)[C@H](O)[C@H]4NC(C)=O)cc13)-c1cc3c(c(=O)n1C2)COC(=O)[C@]3(O)CC", "note": "[SN38-βGlcNAc]", "values": [{"measurement": "Survival rate (%) (after 14 days)", "setting": "[1]; 200 mg/kg intravenous", "result": 100, "unit": "%"}, {"measurement": "Survival rate (%) (just after administration)", "setting": "[1]; 200 mg/kg intravenous", "result": 100, "unit": "%"}, {"measurement": "Survival rate (%) (after 14 days)", "setting": "[1]; 300 mg/kg intravenous", "result": 100, "unit": "%"}, {"measurement": "Survival rate (%) (just after administration)", "setting": "[1]; 300 mg/kg intravenous", "result": 100, "unit": "%"}, {"measurement": "Survival rate (%) (after 14 days)", "setting": "[1]; 500 mg/kg intravenous", "result": 100, "unit": "%"}, {"measurement": "Survival rate (%) (just after administration)", "setting": "[1]; 500 mg/kg intravenous", "result": 100, "unit": "%"}, {"measurement": "symptoms immediately after administration", "setting": "[1]", "result": "reduced locomotor activity and prone states were found in more than half of the mice in both groups"}, {"measurement": "LD50 at 336 h", "setting": "[1]", "result": "≥ 500", "unit": "mg/kg"}, {"measurement": "body weight", "setting": "[2]", "result": "the body weight loss was not found in the first 2 weeks"}, {"measurement": "tumor suppression effect (luciferin/luciferase chemiluminescence)", "setting": "[2]", "result": "the tumor growth was significantly suppressed in all mice"}, {"measurement": "body weight", "setting": "SHP77-luc", "result": "no body weight loss was found during the treatment period"}, {"measurement": "tumor growth (luciferin/luciferase luminescence)", "setting": "SHP77-luc", "result": "significant suppression of tumor growth was confirmed"}, {"measurement": "Histological findings in kidney", "setting": "[3]; 40 mg/kg i.v. repeated", "result": "organ damage to the kidney was not observed"}, {"measurement": "Histological findings in large intestine", "setting": "[3]; 40 mg/kg i.v. repeated", "result": "the side effects were very mild as compared with CPT-11"}, {"measurement": "Histological findings in liver", "setting": "[3]; 40 mg/kg i.v. repeated", "result": "organ damage to the liver was not observed"}, {"measurement": "Histological findings in small intestine", "setting": "[3]; 40 mg/kg i.v. repeated", "result": "the side effects were very mild as compared with CPT-11"}, {"measurement": "Histological findings in spleen", "setting": "[3]; 40 mg/kg i.v. repeated", "result": "organ damage to the spleen was very mild"}, {"measurement": "organ weight (liver, kidney, spleen)", "setting": "[3]; 40 mg/kg i.v. repeated, day 22, vs Vehicle", "result": "An increase in spleen weight was observed"}, {"measurement": "histological findings (organ damage)", "setting": "[3]; 40 mg/kg i.v. repeated", "result": "no organ damage was observed in the small intestine, large intestine, kidney, liver, and spleen"}, {"measurement": "biochemical test findings", "setting": "[3]; 40 mg/kg i.v. repeated", "result": "slight increases in urea nitrogen and creatinine were observed"}, {"measurement": "blood cell test findings", "setting": "[3]; 40 mg/kg i.v. repeated", "result": "an increase in eosinophils and a decrease in basophils were estimated"}, {"measurement": "body weight loss", "setting": "[3]", "result": "significant body weight loss was not observed"}, {"measurement": "RETICULOCYTE COUNT", "setting": "[3]; 40 mg/kg i.v. repeated", "result": 242300, "unit": "µL⁻¹"}, {"measurement": "cytotoxicity in the presence of inhibitor", "setting": "[4]; A549, inhibitor PUGNAc of β-hexosaminidase", "result": "cytotoxicity was significantly reduced"}, {"measurement": "IC50", "setting": "[4]", "result": 1350, "unit": "nM"}]}, {"compound": "CCc1c2c(nc3ccc(O[C@@H]4O[C@H](CO)[C@H](O)[C@H](O)[C@H]4O)cc13)-c1cc3c(c(=O)n1C2)COC(=O)[C@]3(O)CC", "note": "[SN38-βGal]", "values": [{"measurement": "Survival rate (%) (after 14 days)", "setting": "[1]; 200 mg/kg intravenous", "result": 100, "unit": "%"}, {"measurement": "Survival rate (%) (just after administration)", "setting": "[1]; 200 mg/kg intravenous", "result": 100, "unit": "%"}, {"measurement": "symptoms immediately after administration", "setting": "[1]", "result": "reduced locomotor activity and prone states were found in more than half of the mice in both groups"}, {"measurement": "LD50 at 336 h", "setting": "[1]", "result": "≥ 300", "unit": "mg/kg"}, {"measurement": "body weight", "setting": "[2]", "result": "the body weight loss was not found in the first 2 weeks"}, {"measurement": "tumor suppression effect (luciferin/luciferase chemiluminescence)", "setting": "[2]", "result": "the tumor growth was significantly suppressed in all mice"}, {"measurement": "body weight", "setting": "SHP77-luc", "result": "no body weight loss was found during the treatment period"}, {"measurement": "tumor growth (luciferin/luciferase luminescence)", "setting": "SHP77-luc", "result": "significant suppression of tumor growth was confirmed"}, {"measurement": "Histological findings in kidney", "setting": "[3]; 40 mg/kg i.v. repeated", "result": "organ damage to the kidney was not observed"}, {"measurement": "Histological findings in large intestine", "setting": "[3]; 40 mg/kg i.v. repeated", "result": "the side effects were very mild as compared with CPT-11"}, {"measurement": "Histological findings in liver", "setting": "[3]; 40 mg/kg i.v. repeated", "result": "organ damage to the liver was not observed"}, {"measurement": "Histological findings in small intestine", "setting": "[3]; 40 mg/kg i.v. repeated", "result": "the side effects were very mild as compared with CPT-11"}, {"measurement": "Histological findings in spleen", "setting": "[3]; 40 mg/kg i.v. repeated", "result": "organ damage to the spleen was very mild"}, {"measurement": "histological findings (organ damage)", "setting": "[3]; 40 mg/kg i.v. repeated", "result": "no organ damage was observed in the small intestine, large intestine, kidney, liver, and spleen"}, {"measurement": "biochemical test findings", "setting": "[3]; 40 mg/kg i.v. repeated", "result": "a slight decrease in AST and ALT values was observed"}, {"measurement": "blood cell test findings", "setting": "[3]; 40 mg/kg i.v. repeated", "result": "a slight increase in eosinophils and a decrease in basophils were estimated"}, {"measurement": "body weight loss", "setting": "[3]", "result": "significant body weight loss was not observed"}, {"measurement": "RETICULOCYTE COUNT", "setting": "[3]; 40 mg/kg i.v. repeated", "result": 220300, "unit": "µL⁻¹"}, {"measurement": "IC50", "setting": "[4]", "result": 3380, "unit": "nM"}]}]}
